Test results reported in patent US11925633B2, “Drug for preventing and/or treating dementia” (NATIONAL CEREBRAL AND CARDIOVASCULAR CENTER, priority 2016, dated 2024).
Where two headings read alike, the source gives them in different places.

Legend:
APP-SwDI transgenic mice [1] = experiment: Immunohistochemistry for Aβ deposition on the cerebral blood vessel wall (hippocampus region); assay type: in vivo, mouse; settings: 8-month-old mice, drug-containing feed from 4-week-old to 8-month-old; compared to APP-SwDI mice on normal feed
Protocol: The cilostazol-containing feed, the taxifolin-containing feed, and the feed containing cilostazol and taxifolin were administered from 4-week-old to 8-month-old. The concentration of cilostazol in the cilostazol-containing feed was 0.3 wt %, and the concentration of taxifolin in the taxifolin-containing feed was 3 wt %. The concentration of cilostazol and the concentration of taxifolin in the feed containing cilostazol and taxifolin were respectively 0.3 wt % and 3 wt %. All the APP-SwDI transgenic mice used were homozygous male mice. The 4-week-old APP-SwDI transgenic mice are considered to be in the initial stage of accumulation of Aβ in the brain blood vessel, i.e., the initial stage of cerebral amyloid angiopathy, and neuronal loss is considered to be not progressing much in this stage. The brain of an 8-month-old APP-SwDI transgenic mice was perfusion fixed using 4% para-formaldehyde, the removed brain was dehydration-treated for a whole day. A paraffin block of the fixed brain tissue was prepared, and the paraffin block was sliced in 6 microns by microtome. […] The hippocampus region was traced in a section which was cut 1 mm outside the midline, and the percentage of the Aβ accumulation area in the region of interest was measured by using image analysis software ImageJ (National Institutes of Health. USA). […]

APP-SwDI transgenic mice [2] = experiment: Carbon dioxide gas inhalation test (cerebral blood flow, laser speckle blood flow imager); assay type: in vivo, mouse; settings: 12-month-old mice; for cerebral blood flow increase rate after 5% CO2 supply: feed from 4-week-old to 12-month-old, compared to APP-SwDI mice on normal feed; for time course of the cerebral blood flow increase rate after 5% CO2 supply: measured for 5 min after start of 5% CO2; for significance of the difference in cerebral blood flow increase rate versus normal feed group (repeated measurement and variance analysis): versus APP-SwDI mice on normal feed
Protocol: Analysis was performed by using 12-month-old C57BL/6J mice administered with a normal feed (n=4), APP-SwDI transgenic mice administered with a normal feed (n=10), APP-SwDI transgenic mice administered with a cilostazol-containing feed (n=4), APP-SwDI transgenic mice administered with a taxifolin-containing feed (n=5), and APP-SwDI transgenic mice administered with a feed containing cilostazol and taxifolin (n=7), totaling 30 mice. The feeds containing cilostazol, taxifolin, or cilostazol and taxifolin were administered from 4-week-old to 12-month-old. The concentration of cilostazol in the cilostazol-containing feed was 0.3 wt % and the concentration of taxifolin in the taxifolin-containing feed was 3 wt %. All the APP-SwDI transgenic mice used were homozygous male mice. The mice were anesthetized by intraperitoneal injection of α-chloralose and urethane. Then, endotracheal intubation was performed and the baseline of the cerebral blood flow was measured. Thereafter, 5% CO2 was supplied, and the cerebral blood flow was sequentially measured for 5 min. Relative increase rate was measured from the changes in the cerebral blood flow between the baseline and after 5% CO2 supply. The cerebral blood flow was measured by a laser speckle blood flow imager (OZ-2, OMEGAWAVE, INC.). FIG. 2 is a graph showing mean of relative increase rate of the cerebral blood flow after supply of 5% CO2 in the mice of each group. […] Error bars show standard error.

APP-SwDI transgenic mice [3] = experiment: Water maze test (Morris water maze, with probe test); assay type: in vivo, mouse; settings: 8-month-old mice; for residence time in Zone-1 in the probe test (visuospatial memory): fifth day, platform removed, 60 seconds; for swimming time to reach the platform (visuospatial memory): first day to fourth day, 4 trials per day
Protocol: The cilostazol-containing feed, the taxifolin-containing feed, and the feed containing cilostazol and taxifolin were administered from 4-week-old to 8-month-old. The concentration of cilostazol in the cilostazol-containing feed was 0.3 wt %, and the concentration of taxifolin in the taxifolin-containing feed was 3 wt %. The concentration of cilostazol and the concentration of taxifolin in the feed containing cilostazol and taxifolin were respectively 0.3 wt % and 3 wt %. All the APP-SwDI transgenic mice used were homozygous male mice. The water maze test is a test for evaluating the visuospatial cognitive ability of mouse by utilizing the habit of avoiding water and escaping therefrom. The water maze used in this experiment was Morris water maze manufactured by Brain Science Idea, having a circular pool of a water tank entirely painted black with inner diameter 120 cm, wall height 30 cm. One transparent acrylic circular platform for escape with diameter 10 cm, height 10 cm was set at 30 cm from the center of the pool and 30 cm from the periphery. Clues such as poster, photograph and the like were arranged on the wall so that the mice could memorize various spatial arrangements in the surroundings, and the locations of these clues were always unchanged during the experiment. The pool was filled with water to a depth of 11 cm, and a platform was installed at about 1 cm below the water surface as in FIG. 3(A). In all tests, Zone-2 in FIG. 3(B) was set as a start position. Zone-1 to Zone-4 show quadrant regions in the circular pool. The mice were gently placed on the water surface while facing the wall of the pool so that they could not see the location of the platform. The tests were performed from the first day to the fourth day, 4 trials per day. In each trial, the total swimming distance and the time required for reaching the platform (swimming time) were measured. […] On the fifth day, the mice were made to swim for 60 seconds with the platform removed from the pool (probe test). In the test, the residence time in Zone-1 where the goal was placed from the first day to the fourth day was measured. […] Error bars show standard error. […] Error bars show standard error.

[4] = mouse, in vivo
Protocol: (§1) In the “APP-SwDI transgenic mice administrated with a feed containing cilostazol and taxifolin (n=3)”, as mentioned above, the blood concentration of this mouse was measured after administration of the feed containing cilostazol and taxifolin.

APP-SwDI transgenic mice [5] = settings: compared to APP-SwDI mice on control feed; non-patent document 3; cited from earlier work
amyloid beta = settings: administration of cilostazol; non-patent documents 1, 2; cited from earlier work
[6] = administration of cilostazol; non-patent documents 1, 2; cited from earlier work
[7] = administration of cilostazol; cilostazol package insert; cited from earlier work
APP-SwDI transgenic mice [8] = experiment: Survival curve (cumulative survival rate); assay type: in vivo, mouse; settings: observation within 500 days after birth; slaughter not included
Excerpt: 1, 2014 to Nov. 30, 2015, were used to plot and analyze a survival curve of the mice.

APP-SwDI transgenic mice [9] = experiment: Hair loss score (fighting); assay type: in vivo, mouse; settings: 13-month-old mice; compared to APP-SwDI mice on normal feed
Excerpt: Hair loss occurs when mice fight. Thus, the extent of hair loss of each mouse was described in 4 grades of Grade: 0-3 and taken as a hair loss score. Almost normal state is Grade: 0 and hair loss over nearly whole body is Grade: 3. Less than 50% of the whole body surface was classified as Grade: 1 and not less than 50% was classified as Grade: 2.
The information of mice was concealed and two evaluators independently evaluated the hair loss score. Mean of each evaluation was taken as the hair loss score of the mice.
Error bars show standard error.

APP-SwDI transgenic mice [10] = experiment: Y-maze test (alternation response rate); assay type: in vivo, mouse; settings: 13-month-old mice, feed from 4-week-old to 13-month-old; test for 8 minutes
Protocol: The cilostazol-containing feed, the taxifolin-containing feed, and the feed containing cilostazol and taxifolin were administered from 4-week-old to 13-month-old. The concentration of cilostazol in the cilostazol-containing feed was 0.3 wt %, and the concentration of taxifolin in the taxifolin-containing feed was 3 wt %. The concentration of cilostazol and the concentration of taxifolin in the feed containing cilostazol and taxifolin were respectively 0.3 wt % and 3 wt %. All the APP-SwDI transgenic mice used were homozygous male mice. In the Y-maze test, according to the general practice method, the alternation response rate was measured from the results of the test for 8 minutes. […] FIG. 7 is a graph showing an average alternation response rate of the mice of each group. Error bars show standard error.

[11] = Blood concentration after administration of the feed containing cilostazol and taxifolin
Protocol: as §1

In the case of `O=C1CCc2cc(OCCCCc3nnnn3C3CCCCC3)ccc2N1` [cilostazol, 6-[4-(1-cyclohexyl-1H-tetrazol-5-yl)butoxy]-3,4-dihydrocarbostyril], the “intracerebral Aβ accumulation amount” value (APP-SwDI transgenic mice [1]) is reported as “significant decrease”, the “cerebral blood flow increase rate after 5% CO2 supply” value (APP-SwDI transgenic mice [2]) is reported as “increased” and the “time course of the cerebral blood flow increase rate after 5% CO2 supply” value (APP-SwDI transgenic mice [2]) is reported as “increased after a certain period of time after 5% CO2 supply”. For the same compound, the “significance of the difference in cerebral blood flow increase rate versus normal feed group (repeated measurement and variance analysis)” value (APP-SwDI transgenic mice [2]) was “a significant difference was absent”, the “residence time in Zone-1 in the probe test (visuospatial memory)” value (APP-SwDI transgenic mice [3]) was “visuospatial memory disorder improving effect of cilostazol was considered to be limited” and the “swimming time to reach the platform (visuospatial memory)” value (APP-SwDI transgenic mice [3]) was “visuospatial memory disorder improving effect of cilostazol was considered to be limited”. For the same compound, the “presence in the blood (compound or its metabolite)” value [4] was “detected in the blood”, the “alternation response in the Y-maze test” value (APP-SwDI transgenic mice [5]) was “increased” and the “intracerebral accumulation of amyloid beta” value (amyloid beta) was “suppressed”. The “reduction of cognitive function” value [6] was “suppressed” and the “cerebral blood flow in the vertebral artery, internal carotid artery, cerebral cortex, hypothalamus and the like” value [7] was “increases”.

In the case of `O=C1c2c(O)cc(O)cc2O[C@H](c2ccc(O)c(O)c2)[C@H]1O` [taxifolin], the “intracerebral Aβ accumulation amount” value (APP-SwDI transgenic mice [1]) is reported as “significant decrease”, the “cerebral blood flow increase rate after 5% CO2 supply” value (APP-SwDI transgenic mice [2]) is reported as “increased” and the “time course of the cerebral blood flow increase rate after 5% CO2 supply” value (APP-SwDI transgenic mice [2]) is reported as “rapidly increased after 5% CO2 supply”. The “significance of the difference in cerebral blood flow increase rate versus normal feed group (repeated measurement and variance analysis)” value (APP-SwDI transgenic mice [2]) was “a significant difference was absent”, the “residence time in Zone-1 in the probe test (visuospatial memory)” value (APP-SwDI transgenic mice [3]) was “the same results as in the C57BL/6J mouse” and the “swimming time to reach the platform (visuospatial memory)” value (APP-SwDI transgenic mice [3]) was “the same results as in the C57BL/6J mouse”. For the same compound, the “death of mice (cumulative survival rate)” value (APP-SwDI transgenic mice [8]) was “died clearly more than other mice”, the “hair loss score (Grade 0-3)” value (APP-SwDI transgenic mice [9]) was “clearly severe hair loss” and the “alternation response rate (working memory)” value (APP-SwDI transgenic mice [10]) was “significant improvement was not observed”. The “presence in the blood (compound or its metabolite)” value [11] was “detected in the blood”.
